Legend:
Assay type in all cases: in vivo
[1] = system: corn; assay: Test Example-4: phytotoxicity by a foliage treatment after weeds are generated under upland field conditions; conditions: 500 g a.i/ha, foliage treatment after emergence, about 14 days after treatment, score 0-5
Excerpt: (§1) Using the formulation prepared according to the methods described above, the herbicidal effect of the bicyclic pyrazolinone derivative of the invention according to the methods shown in Test Examples below was examined. The herbicidal effect with respect to the test weeds or the phytotoxicity with respect to the test crops was examined according to the following criteria, and evaluated in six stage scores of 0 to 5. A vat having an area of 65 cm^2 and a depth of 2 cm was filled with upland soil, then, seeds of Amaranthus viridis (green amaranthus), Abutilon theophrasti (velvetleaf), Chenopodium album (common lambsquarters), […]. While watering was suitably performed on there, the seeds were grown for 14 days. A wettable powder or an emulsifiable concentrate of the compound of the present invention prepared according to Formulation Example was diluted, and a spray treatment was uniformly performed on the foliage portion of the plant so as to be a predetermined dosage in the amount of water of 4000 L per hectare. The herbicidal effect with respect to the test weeds and the phytotoxicity with respect to corn about 14 days after the treatment were evaluated according to the evaluation criteria in six stages of 0 to 5 described above.

[2] = system: Amaranthus viridis (green amaranthus); assay: Test Example-4: herbicidal effect by a foliage treatment after weeds are generated under upland field conditions; conditions: 500 g a.i/ha, foliage treatment after emergence, about 14 days after treatment, score 0-5
Excerpt: as §1

[3] = system: Chenopodium album (common lambsquarters); assay: as above; conditions: 500 g a.i/ha, foliage treatment after emergence, about 14 days after treatment, score 0-5
Excerpt: as §1

[4] = system: Abutilon theophrasti (velvetleaf); assay: as above; conditions: 500 g a.i/ha, foliage treatment after emergence, about 14 days after treatment, score 0-5
Excerpt: as §1

[5] = system: other annual broad leaf weeds (Lindernia procumbens, Rotala indica, Elatine triandra); assay: Test Example-1: herbicidal effect by a treatment before weeds are generated under submerged conditions; conditions: 500 g a.i/ha, pre-emergence treatment, about 15 days after treatment, score 0-5
How it was run: (§2)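 Paddy-soil cups were puddled, sown with the weeds and kept submerged. On the seeding day, diluted wettable powder or emulsifiable concentrate was applied as a submersing treatment at a predetermined dosage. Herbicidal effect was scored 0–5 about 15 days after treatment.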

[6] = system: Eleocharis acicularis (needle spikerush); assay: as above; conditions: 500 g a.i/ha, pre-emergence treatment, about 15 days after treatment, score 0-5
How it was run: as §2

[7] = system: Monochoria vaginalis (monochoria); assay: as above; conditions: 500 g a.i/ha, pre-emergence treatment, about 15 days after treatment, score 0-5
How it was run: as §2

[8] = system: Echinochloa oryzicola (barnyard grass); assay: as above; conditions: 500 g a.i/ha, pre-emergence treatment, about 15 days after treatment, score 0-5
How it was run: as §2

[9] = system: Scirpus juncoides (bulrush); assay: as above; conditions: 500 g a.i/ha, pre-emergence treatment, about 15 days after treatment, score 0-5
How it was run: as §2

[10] = system: Cyperus difformis (smallflower umbrella plant); assay: as above; conditions: 500 g a.i/ha, pre-emergence treatment, about 15 days after treatment, score 0-5
How it was run: as §2

| Structure (SMILES) | Phytotoxicity Corn [1] | Herbicidal effect Amaranthus viridis [2] | Herbicidal effect Chenopodium album [3] | Herbicidal effect Abutilon theophrast [4] | Herbicidal effect Broadleaf weed [5] | Herbicidal effect Eleocharis acicularis [6] | Herbicidal effect Monochoria vaginalis [7] | Herbicidal effect Echinochloa oryzicola [8] | Herbicidal effect Scirpus juncoides [9] | Herbicidal effect Cyperus difformis [10] |
| --- | --- | --- | --- | --- | --- | --- | --- | --- | --- | --- |
| CC1(COc2cc(-c3c(Cl)n4n(c3=O)CCCC4)c(F)cc2Cl)CC(c2ccc(F)cc2Cl)=NO1 (stereo not shown) [Example 4-11] | 2 (Herbicidal effect/phytotoxicity was 30% to 50%) | 5 (Herbicidal effect/phytotoxicity was 90% or greater) | 5 (Herbicidal effect/phytotoxicity was 90% or greater) | 5 (Herbicidal effect/phytotoxicity was 90% or greater) |  |  |  |  |  |  |
| CCCOC(=O)C=C(COc1cc(-c2c(Cl)n3n(c2=O)CCCC3)c(F)cc1Cl)OCC (mixture of isomers) [Example 2-23] | 0 (Herbicidal effect/phytotoxicity was 0% to 10%) | 5 (Herbicidal effect/phytotoxicity was 90% or greater) | 5 (Herbicidal effect/phytotoxicity was 90% or greater) | 5 (Herbicidal effect/phytotoxicity was 90% or greater) |  |  |  |  |  |  |
| COc1cc(-c2c(Cl)n3n(c2=O)CCCC3)ccc1Cl [Example 1-44] | 0 (Herbicidal effect/phytotoxicity was 0% to 10%) | 5 (Herbicidal effect/phytotoxicity was 90% or greater) | 5 (Herbicidal effect/phytotoxicity was 90% or greater) | 5 (Herbicidal effect/phytotoxicity was 90% or greater) |  |  |  |  |  |  |
| CCCOC(=CC(=O)OCC)COc1cc(-c2c(Cl)n3n(c2=O)CCCC3)c(F)cc1Cl (mixture of isomers) [Example 2-20] | 0 (Herbicidal effect/phytotoxicity was 0% to 10%) | 5 (Herbicidal effect/phytotoxicity was 90% or greater) | 5 (Herbicidal effect/phytotoxicity was 90% or greater) | 5 (Herbicidal effect/phytotoxicity was 90% or greater) |  |  |  |  |  |  |
| C=CCOc1ccccc1Oc1cc(-c2c(Cl)n3n(c2=O)CCCC3)c(F)cc1Cl [Compound 3-27] |  |  |  |  | 5 (Herbicidal effect/phytotoxicity was 90% or greater) | 5 (Herbicidal effect/phytotoxicity was 90% or greater) | 5 (Herbicidal effect/phytotoxicity was 90% or greater) | 5 (Herbicidal effect/phytotoxicity was 90% or greater) | 5 (Herbicidal effect/phytotoxicity was 90% or greater) | 5 (Herbicidal effect/phytotoxicity was 90% or greater) |
| COc1cc(F)ccc1Oc1cc(-c2c(Cl)n3n(c2=O)CCCC3)c(F)cc1Cl [Compound 3-33] |  |  |  |  | 5 (Herbicidal effect/phytotoxicity was 90% or greater) | 5 (Herbicidal effect/phytotoxicity was 90% or greater) | 5 (Herbicidal effect/phytotoxicity was 90% or greater) | 5 (Herbicidal effect/phytotoxicity was 90% or greater) | 5 (Herbicidal effect/phytotoxicity was 90% or greater) | 5 (Herbicidal effect/phytotoxicity was 90% or greater) |
| CCCOC(=CC(=O)OCC(C)C)COc1cc(-c2c(Cl)n3n(c2=O)CCCC3)c(F)cc1Cl [Compound 2-34] |  |  |  |  | 5 (Herbicidal effect/phytotoxicity was 90% or greater) | 5 (Herbicidal effect/phytotoxicity was 90% or greater) | 5 (Herbicidal effect/phytotoxicity was 90% or greater) | 5 (Herbicidal effect/phytotoxicity was 90% or greater) | 5 (Herbicidal effect/phytotoxicity was 90% or greater) | 5 (Herbicidal effect/phytotoxicity was 90% or greater) |
| N#CCOc1ccc(Oc2cc(-c3c(Cl)n4n(c3=O)CCCC4)c(F)cc2Cl)cc1 [Compound 3-20] |  |  |  |  | 5 (Herbicidal effect/phytotoxicity was 90% or greater) | 5 (Herbicidal effect/phytotoxicity was 90% or greater) | 5 (Herbicidal effect/phytotoxicity was 90% or greater) | 5 (Herbicidal effect/phytotoxicity was 90% or greater) | 5 (Herbicidal effect/phytotoxicity was 90% or greater) | 5 (Herbicidal effect/phytotoxicity was 90% or greater) |
| C#CCOc1cc(Cl)ccc1Oc1cc(-c2c(Cl)n3n(c2=O)CCCC3)c(F)cc1Cl [Compound 3-39] |  |  |  |  | 5 (Herbicidal effect/phytotoxicity was 90% or greater) | 5 (Herbicidal effect/phytotoxicity was 90% or greater) | 5 (Herbicidal effect/phytotoxicity was 90% or greater) | 5 (Herbicidal effect/phytotoxicity was 90% or greater) | 5 (Herbicidal effect/phytotoxicity was 90% or greater) | 5 (Herbicidal effect/phytotoxicity was 90% or greater) |
| C#CCOc1cc(-c2c(F)n3n(c2=O)CCCCC3)c(Cl)cc1Cl [Example 1-361] |  |  |  |  | 5 (Herbicidal effect/phytotoxicity was 90% or greater) | 5 (Herbicidal effect/phytotoxicity was 90% or greater) | 5 (Herbicidal effect/phytotoxicity was 90% or greater) | 5 (Herbicidal effect/phytotoxicity was 90% or greater) | 5 (Herbicidal effect/phytotoxicity was 90% or greater) | 5 (Herbicidal effect/phytotoxicity was 90% or greater) |
| C#CC(C)Oc1ccccc1Oc1cc(-c2c(Cl)n3n(c2=O)CCCC3)c(F)cc1Cl (stereo not shown) [Compound 3-31] |  |  |  |  | 5 (Herbicidal effect/phytotoxicity was 90% or greater) | 5 (Herbicidal effect/phytotoxicity was 90% or greater) | 5 (Herbicidal effect/phytotoxicity was 90% or greater) | 5 (Herbicidal effect/phytotoxicity was 90% or greater) | 5 (Herbicidal effect/phytotoxicity was 90% or greater) | 5 (Herbicidal effect/phytotoxicity was 90% or greater) |
| O=c1c(-c2cc(OC3C=CCCC3)c(F)cc2F)c(Cl)n2n1CCCC2 (stereo not shown) [Example 1-112] |  |  |  |  | 5 (Herbicidal effect/phytotoxicity was 90% or greater) | 5 (Herbicidal effect/phytotoxicity was 90% or greater) | 5 (Herbicidal effect/phytotoxicity was 90% or greater) | 5 (Herbicidal effect/phytotoxicity was 90% or greater) | 5 (Herbicidal effect/phytotoxicity was 90% or greater) | 5 (Herbicidal effect/phytotoxicity was 90% or greater) |
| O=c1c(-c2cc(Oc3cccnc3[N+](=O)[O-])c(Cl)cc2F)c(Cl)n2n1CCCC2 [Example 1-386] |  |  |  |  | 5 (Herbicidal effect/phytotoxicity was 90% or greater) | 5 (Herbicidal effect/phytotoxicity was 90% or greater) | 5 (Herbicidal effect/phytotoxicity was 90% or greater) | 5 (Herbicidal effect/phytotoxicity was 90% or greater) | 5 (Herbicidal effect/phytotoxicity was 90% or greater) | 5 (Herbicidal effect/phytotoxicity was 90% or greater) |
| CC1(COc2cc(-c3c(Cl)n4n(c3=O)CCCC4)c(F)cc2Cl)CC(c2ccccc2F)=NO1 (stereo not shown) [Compound 4-3] |  |  |  |  | 5 (Herbicidal effect/phytotoxicity was 90% or greater) | 5 (Herbicidal effect/phytotoxicity was 90% or greater) | 5 (Herbicidal effect/phytotoxicity was 90% or greater) | 5 (Herbicidal effect/phytotoxicity was 90% or greater) | 5 (Herbicidal effect/phytotoxicity was 90% or greater) | 5 (Herbicidal effect/phytotoxicity was 90% or greater) |
| C#CCN(C)c1cc(-c2c(Cl)n3n(c2=O)CCCC3)c(F)cc1Cl [Example 5-68] |  |  |  |  | 5 (Herbicidal effect/phytotoxicity was 90% or greater) | 5 (Herbicidal effect/phytotoxicity was 90% or greater) | 5 (Herbicidal effect/phytotoxicity was 90% or greater) | 5 (Herbicidal effect/phytotoxicity was 90% or greater) | 5 (Herbicidal effect/phytotoxicity was 90% or greater) | 5 (Herbicidal effect/phytotoxicity was 90% or greater) |

— patent US9580444B2, “Polycyclic pyrazolinone derivative and herbicide comprising same as effective component thereof” (priority 2013, dated 2017)
